The record followed here is the Deep4Chem optical property database.

A short description of the first data set: solvent given as SMILES. Conditions: in C1CCCCC1.
In turn, `O=C1Cc2cc3c(cc2CCCc2ccc(cc2)CCC3)CC(=O)Cc2ccc(c3nsnc23)C1` yielded an emission maximum of 501 nm.
Take `c1ccc(-c2nc(-c3cccc4ccccc34)n3ccccc23)cc1`: the emission maximum turned out to be 478 nm.
Regarding `CC(C)(C)c1ccc(-c2ccc(C(C)(C)C)cc2)cc1`, the emission maximum came to 312 nm.
The compound `Cc1ccc(/C=N/c2cc(C(C)C)c(O)cc2C)cc1` returned an emission maximum of 400 nm.
`Fc1ccc(-c2cc3c4c(c2)CCc2cc(-c5ccc(F)cc5)cc(c2-4)CC3)cc1` registered an emission maximum of 374.66 nm.
With `O=C1c2ccccc2-c2ccc(N3CCN(c4ccccc4)CC3)c3cccc1c23`, the emission maximum was determined as 529 nm.

Still in this data set, the particulars now being: in C1CCOC1.
As for `CC(C)(C)c1ccc(-c2nc3c4ccc(-c5c6ccccc6cc6ccccc56)cc4c4cc(-c5c6ccccc6cc6ccccc56)ccc4c3n2-c2ccc(C(C)(C)C)cc2)cc1`, the emission maximum was determined as 428 nm.
Compound `COc1ccc(C2=CC(c3ccc4cc(N(C)C)ccc4c3)=[O+][B-](F)(F)O2)cc1` had an emission maximum of 618 nm.
For the compound `CC(C)(C)c1ccc2c(c1)c1cc(C(C)(C)C)ccc1n2-c1cccc(-c2nc(-c3cccc(-n4c5ccc(C(C)(C)C)cc5c5cc(C(C)(C)C)ccc54)c3)nc(-c3cccc(P(=O)(c4ccccc4)c4ccccc4)c3)n2)c1`, the emission maximum was found to be 514.41 nm.
Consider `Cc1ccc(/C=N/c2cc(C(C)C)c(O)cc2C)cc1`, for which the emission maximum amounted to 410 nm.
Turning to `Fc1ccc(-c2cc3c4c(c2)CCc2cc(-c5ccc(F)cc5)cc(c2-4)CC3)cc1`, the emission maximum is 378.18 nm.
Compound `O=C1c2ccccc2-c2ccc(N3CCN(c4ccccc4)CC3)c3cccc1c23` showed an emission maximum of 583 nm.
As for `COc1ccc(/C=C/c2cc(/C=C/c3ccc(OC)cc3)nc(/C=C/c3ccc4cc(OC)ccc4c3)n2)cc1`, the emission maximum is recorded as 433 nm.
In the case of `c1ccc(-n2c(-c3ccc(-c4ccc(-c5ccc(-c6nc7c8ccccc8c8ccccc8c7n6-c6ccccc6)cc5)cc4)cc3)nc3ccccc32)cc1`, the emission maximum came out at 435 nm.

The data set is the same for the next values; noted with them: in C1COCCO1.
Regarding `CC(C)(C)c1ccc(-c2nc3c4ccc(-c5c6ccccc6cc6ccccc56)cc4c4cc(-c5c6ccccc6cc6ccccc56)ccc4c3n2-c2ccc(C(C)(C)C)cc2)cc1`, the emission maximum amounted to 429 nm.
As for `Cc1ccc(/C=N/c2cc(C(C)C)c(O)cc2C)cc1`, the emission maximum was determined as 408 nm.
For the compound `O=C1c2ccccc2-c2ccc(N3CCN(c4ccccc4)CC3)c3cccc1c23`, the emission maximum is reported as 578 nm.
Same read-out and setting: in the case of `c1ccc(-n2c(-c3ccc(-c4ccc(-c5ccc(-c6nc7c8ccccc8c8ccccc8c7n6-c6ccccc6)cc5)cc4)cc3)nc3ccccc32)cc1` it was 414 nm.

The same data set, now with this note: in CC1COC(=O)O1.
For `O=C1c2ccccc2-c2ccc(N3CCN(c4ccccc4)CC3)c3cccc1c23`, the emission maximum is 614 nm.

Staying with this data set, now noted: in CC#N.
Take `CC(C)(C)c1ccc(-c2nc3c4ccc(-c5c6ccccc6cc6ccccc56)cc4c4cc(-c5c6ccccc6cc6ccccc56)ccc4c3n2-c2ccc(C(C)(C)C)cc2)cc1`: the emission maximum was determined as 455 nm.
`COc1ccc(C2=CC(c3ccc4cc(N(C)C)ccc4c3)=[O+][B-](F)(F)O2)cc1` gave an emission maximum of 681 nm.
`O=C1Cc2cc3c(cc2CCCc2ccc(cc2)CCC3)CC(=O)Cc2ccc(c3nsnc23)C1` yielded an emission maximum of 544 nm.
Take `c1ccc(-c2nc(-c3cccc4ccccc34)n3ccccc23)cc1`: the emission maximum was determined as 480 nm.
For `CC(C)(C)c1ccc2c(c1)c1cc(C(C)(C)C)ccc1n2-c1cccc(-c2nc(-c3cccc(-n4c5ccc(C(C)(C)C)cc5c5cc(C(C)(C)C)ccc54)c3)nc(-c3cccc(P(=O)(c4ccccc4)c4ccccc4)c3)n2)c1`, the emission maximum was 572.13 nm.
The compound `Cc1ccc(/C=N/c2cc(C(C)C)c(O)cc2C)cc1` had an emission maximum of 415 nm.
The compound `Fc1ccc(-c2cc3c4c(c2)CCc2cc(-c5ccc(F)cc5)cc(c2-4)CC3)cc1` displayed an emission maximum of 375.98 nm.
As to `O=C1c2ccccc2-c2ccc(N3CCN(c4ccccc4)CC3)c3cccc1c23`, the emission maximum is 603 nm.
In turn, `COc1ccc(/C=C/c2cc(/C=C/c3ccc(OC)cc3)nc(/C=C/c3ccc4cc(OC)ccc4c3)n2)cc1` yielded an emission maximum of 463 nm.
Turning to `c1ccc(-n2c(-c3ccc(-c4ccc(-c5ccc(-c6nc7c8ccccc8c8ccccc8c7n6-c6ccccc6)cc5)cc4)cc3)nc3ccccc32)cc1`, the emission maximum turned out to be 447 nm.
Still for that read-out and setting: the same measure for `Cc1cc(=O)oc2ccc3ccc(O)cc3c12`: 429 nm; for `CN1CCN(CCCN2c3ccccc3Sc3ccc(Cl)cc32)CC1`: 449 nm.

The data set is the same for the next values; noted with them: in CC(C)(C)O.
On to `Cc1ccc(/C=N/c2cc(C(C)C)c(O)cc2C)cc1`, for which the emission maximum is reported as 412 nm.

The data set is the same for the next values; noted with them: in CC(C)=O.
`COc1ccc(C2=CC(c3ccc4cc(N(C)C)ccc4c3)=[O+][B-](F)(F)O2)cc1` displayed an emission maximum of 660 nm.
On to `CC(C)(C)c1ccc2c(c1)c1cc(C(C)(C)C)ccc1n2-c1cccc(-c2nc(-c3cccc(-n4c5ccc(C(C)(C)C)cc5c5cc(C(C)(C)C)ccc54)c3)nc(-c3cccc(P(=O)(c4ccccc4)c4ccccc4)c3)n2)c1`, for which the emission maximum came out at 552.3 nm.
With `O=C1c2ccccc2-c2ccc(N3CCN(c4ccccc4)CC3)c3cccc1c23`, the emission maximum was 601 nm.
For the compound `COc1ccc(/C=C/c2cc(/C=C/c3ccc(OC)cc3)nc(/C=C/c3ccc4cc(OC)ccc4c3)n2)cc1`, the emission maximum is 445 nm.

The data set is the same for the next values; noted with them: in CC(C)O.
`Cc1ccc(/C=N/c2cc(C(C)C)c(O)cc2C)cc1` yielded an emission maximum of 416 nm.

Staying with this data set, now noted: in CCCCCC.
`CC(C)(C)c1ccc(-c2nc3c4ccc(-c5c6ccccc6cc6ccccc56)cc4c4cc(-c5c6ccccc6cc6ccccc56)ccc4c3n2-c2ccc(C(C)(C)C)cc2)cc1` showed an emission maximum of 419 nm.
In turn, `Cc1ccc(/C=N/c2cc(C(C)C)c(O)cc2C)cc1` gave an emission maximum of 402 nm.
On the same count and under the same terms, the same measure for `Fc1ccc(-c2cc3c4c(c2)CCc2cc(-c5ccc(F)cc5)cc(c2-4)CC3)cc1`: 374.51 nm; for `c1ccc(-n2c(-c3ccc(-c4ccc(-c5ccc(-c6nc7c8ccccc8c8ccccc8c7n6-c6ccccc6)cc5)cc4)cc3)nc3ccccc32)cc1`: 404 nm.

The data set is the same for the next values; noted with them: in CCCCCCC.
Turning to `COc1ccc(/C=C/c2cc(/C=C/c3ccc(OC)cc3)nc(/C=C/c3ccc4cc(OC)ccc4c3)n2)cc1`, the emission maximum worked out at 401 nm.

The data set is the same for the next values; noted with them: in CCCCCCCCO
`O=C1c2ccccc2-c2ccc(N3CCN(c4ccccc4)CC3)c3cccc1c23`: the emission maximum stood at 590 nm.

The data set is the same for the next values; noted with them: in CCCCCO.
The compound `O=C1c2ccccc2-c2ccc(N3CCN(c4ccccc4)CC3)c3cccc1c23` had an emission maximum of 586 nm.

Still in this data set, the particulars now being: in CCCCO.
In the case of `Cc1ccc(/C=N/c2cc(C(C)C)c(O)cc2C)cc1`, the emission maximum stood at 417 nm.
In the case of `O=C1c2ccccc2-c2ccc(N3CCN(c4ccccc4)CC3)c3cccc1c23`, the emission maximum is 581 nm.

Still in this data set, the particulars now being: in CCCCOCCCC
As for `CC(C)(C)c1ccc(-c2nc3c4ccc(-c5c6ccccc6cc6ccccc56)cc4c4cc(-c5c6ccccc6cc6ccccc56)ccc4c3n2-c2ccc(C(C)(C)C)cc2)cc1`, the emission maximum amounted to 424 nm.
Compound `c1ccc(-n2c(-c3ccc(-c4ccc(-c5ccc(-c6nc7c8ccccc8c8ccccc8c7n6-c6ccccc6)cc5)cc4)cc3)nc3ccccc32)cc1` showed an emission maximum of 411 nm.

Still in this data set, the particulars now being: in CCCO.
For the compound `O=C1c2ccccc2-c2ccc(N3CCN(c4ccccc4)CC3)c3cccc1c23`, the emission maximum worked out at 586 nm.

Staying with this data set, now noted: in CCN(CC)CC.
Compound `CC(C)(C)c1ccc(-c2nc3c4ccc(-c5c6ccccc6cc6ccccc56)cc4c4cc(-c5c6ccccc6cc6ccccc56)ccc4c3n2-c2ccc(C(C)(C)C)cc2)cc1` displayed an emission maximum of 421 nm.
Turning to `c1ccc(-n2c(-c3ccc(-c4ccc(-c5ccc(-c6nc7c8ccccc8c8ccccc8c7n6-c6ccccc6)cc5)cc4)cc3)nc3ccccc32)cc1`, the emission maximum amounted to 409 nm.

Still in this data set, the particulars now being: in CCO.
In the case of `O=C([O-])c1ccc(C(=O)[O-])c(C2=c3cc4c5c(c3Oc3c2cc2c6c3CCCN6CCC2)CCC[N+]=5CCC4)c1`, the emission maximum was 596 nm.
The same measure, in the same setting: in the case of `CC(C)Nc1cc2sc3cc(NC(C)C)c(F)cc3c(=O)c2cc1F` it was 446 nm; in that of `Cc1ccc(/C=N/c2cc(C(C)C)c(O)cc2C)cc1`, 417 nm.
The compound `Fc1ccc(-c2cc3c4c(c2)CCc2cc(-c5ccc(F)cc5)cc(c2-4)CC3)cc1` had an emission maximum of 375.24 nm.
On the same count and under the same terms, in the case of `O=C1c2ccccc2-c2ccc(N3CCN(c4ccccc4)CC3)c3cccc1c23` it was 589 nm.
In the case of `CN(C)c1ccc2cc3ccc(=[N+](C)C)cc-3oc2c1`, the emission maximum turned out to be 568 nm.
`Cc1cc(=O)oc2ccc3ccc(O)cc3c12`: the emission maximum amounted to 450 nm.

Staying with this data set, now noted: in CCOC(C)=O.
With `CC(C)(C)c1ccc(-c2nc3c4ccc(-c5c6ccccc6cc6ccccc56)cc4c4cc(-c5c6ccccc6cc6ccccc56)ccc4c3n2-c2ccc(C(C)(C)C)cc2)cc1`, the emission maximum was determined as 429 nm.
Same read-out and setting: in the case of `Cc1ccc(/C=N/c2cc(C(C)C)c(O)cc2C)cc1` it was 409 nm; in that of `O=C1c2ccccc2-c2ccc(N3CCN(c4ccccc4)CC3)c3cccc1c23`, 587 nm; in that of `c1ccc(-n2c(-c3ccc(-c4ccc(-c5ccc(-c6nc7c8ccccc8c8ccccc8c7n6-c6ccccc6)cc5)cc4)cc3)nc3ccccc32)cc1`, 425 nm.

Staying with this data set, now noted: in CCOCC.
In turn, `CC(C)(C)c1ccc(-c2nc3c4ccc(-c5c6ccccc6cc6ccccc56)cc4c4cc(-c5c6ccccc6cc6ccccc56)ccc4c3n2-c2ccc(C(C)(C)C)cc2)cc1` registered an emission maximum of 424 nm.
